Biological target: T1, MAGL (Homo sapiens, UniProt Q99685)
T1 sequence (Q99685 1-303): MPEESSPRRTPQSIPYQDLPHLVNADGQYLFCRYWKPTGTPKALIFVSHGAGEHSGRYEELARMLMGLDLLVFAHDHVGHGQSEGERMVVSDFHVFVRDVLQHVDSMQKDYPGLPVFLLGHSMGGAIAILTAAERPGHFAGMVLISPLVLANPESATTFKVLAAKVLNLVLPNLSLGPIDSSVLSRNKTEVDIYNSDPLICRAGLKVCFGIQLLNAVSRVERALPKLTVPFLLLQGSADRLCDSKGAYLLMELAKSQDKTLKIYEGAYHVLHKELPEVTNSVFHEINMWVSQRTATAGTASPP
Experiment: 2-AG assay: MAGL inhibitory activity by hydrolysis of 2-arachidonoylglycerol to arachidonic acid, followed by mass spectrometry
Format: biochemical
Conditions: 15 min preincubation, 30 min reaction at RT, 8 μM 2-arachidonoylglycerol
Source text: Compounds of formula (I) were profiled for MAGL inhibitory activity by determining the enzymatic activity by following the hydrolysis of the natural substrate 2-arachidonoylglycerol (2-AG) resulting in arachidonic acid, which can be followed by mass spectrometry. This assay is hereinafter abbreviated “2-AG assay”.
Compounds of formula (I) were profiled for MAGL inhibitory activity by determining the enzymatic activity by following the hydrolysis of the natural substrate 2-arachidonoylglycerol (2-AG) resulting in arachidonic acid, which can be followed by mass spectrometry. This assay is hereinafter abbreviated “2-AG assay”. The 2-AG assay was carried out in 384 well polypropylene assay plates. Compound dilutions were made in 100% DMSO in a polypropylene plate in 3-fold dilution steps to give a final concentration range in the assay from 12.5 μM to […]. Compound dilutions were added to MAGL protein in assay buffer (50 mM TRIS, 1 mM EDTA, 0.01% (v/v) Tween-20, 2.5% (v/v) DMSO). After shaking, the plate was incubated for 15 min at RT. To start the reaction, 2-arachidonoylglycerol in assay buffer was added. The final concentrations in the assay was […] for MAGL protein and 8 μM 2-arachidonoylglyerol. After shaking and 30 min incubation at RT, the reaction was quenched by the addition of two assay volumes of acetonitrile containing 4 μM of d8-arachidonic acid. The amount of arachidonic acid formed was traced by an online SPE system (Agilent Rapidfire) coupled to a triple quadrupole mass spectrometer. A C18 SPE cartridge (Agilent G9205A) was used in an acetonitrile/water liquid setup. The mass spectrometer was operated in negative electrospray mode following the mass transitions 303.1→259.1 for arachidonic acid and 311.1→267.0 for d8-arachidonic acid. The activity of the compounds was calculated based on the ratio of intensities [arachidonic acid/d 8-arachidonic acid].

`O=C1CCC2(CN(C(=O)N3CC4(CN(Cc5snnc5C5CCC5)C4)C3)C2)N1` [Example 334, 2-[6-[(4-cyclobutylthiadiazol-5-yl)methyl]-2,6-diazaspiro[3.3]heptane-2-carbonyl]-2,5-diazaspiro[3.4]octan-6-one] was tested. Which IC50 did it give?
The IC50 was 88.2 nM.

Which IC50 does the source give for `O=C1NC2(CO1)CN(C(=O)N1CC3(CC(Cc4ncc(C(F)(F)F)cc4F)C3)C1)C2` [Example 28, 2-[6-[[3-fluoro-5-(trifluoromethyl)-2-pyridyl]methyl]-2-azaspiro[3.3]heptane-2-carbonyl]-7-oxa-2,5-diazaspiro[3.4]octan-6-one] here?
The IC50 was 0.23 nM.

`Cn1ncc(CC2CC3(C2)CN(C(=O)N2CC4(CCCC(=O)N4)C2)C3)c1C(F)(F)F` [Example 276] was tested. Which IC50 did it give?
Its IC50 is 92.7 nM.

For `CS(=O)(=O)c1ccc(Cl)cc1OC1CCC2(CC1)CN(C(=O)N1CC3(COC(=O)N3)C1)C2` [Example 122, 2-[7-(5-chloro-2-mesyl-phenoxy)-2-azaspiro[3.5]nonane-2-carobnyl]-7-oxa-2,5-diazaspiro[3.4]octan-6-one], which IC50 is on record?
The IC50 was 4.33 nM.

For `CS(=O)(=O)c1cc(CC2CC3(C2)CN(C(=O)N2CC4(COC(=O)N4)C2)C3)ccc1C(F)(F)F` [Example 29, 2-[6-[3-mesyl-4-(trifluoromethyl)benzyl]-2-azaspiro[3.3]heptane-2-carbonyl]-7-oxa-2,5-diazaspiro[3.4]octan-6-one], which IC50 is on record?
Its IC50 is 0.34 nM.

`O=C1NC2(CO1)CN(C(=O)N1CC3(CCN(Cc4cccc(S(=O)(=O)C(F)(F)F)c4)CC3)C1)C2` [Example 139, 2-[7-(3-triflylbenzyl)-2,7-diazaspiro[3.5]nonane-2-carbonyl]-7-oxa-2,5-diazaspiro[3.4]octan-6-one] was tested. Which IC50 did it give?
The IC50 was 0.76 nM.

Which IC50 does the source give for `CS(=O)(=O)c1ccc(O[C@H]2CCC3(C2)CN(C(=O)N2CC4(COC(=O)N4)C2)C3)cc1C(F)(F)F` [Example 118, 2-[(6S)-6-[4-mesy1-3-(trifluoromethyl)phenoxy]-2-azaspiro[3.4]octane-2-carbonyl]-7-oxa-2,5-diazaspiro[3.4]octan-6-one] here?
Its IC50 is 2.49 nM.

`O=C1CCC2(CN(C(=O)N3CC4(CC(Cc5nc(C(F)(F)F)cs5)C4)C3)C2)N1` [Example 319, 2-[6-[[4-(trifluoromethyl)thiazol-2-yl]methyl]-2-azaspiro[3.3]heptane-2-carbonyl]-2,5-diazaspiro[3.4]octan-6-one] was tested. Which IC50 did it give?
The IC50 was 12.4 nM.

`Cn1cc(CC2CC3(C2)CN(C(=O)N2CC4(COCC(=O)N4)C2)C3)c(C(F)(F)F)n1` [Example 370, 2-[6-[[1-methyl-3-(trifluoromethyl)pyrazol-4-yl]methyl]-2-azaspiro[3.3]heptane-2-carbonyl]-8-oxa-2,5-diazaspiro[3.5]nonan-6-one] was tested. Which IC50 did it give?
The IC50 was 11.8 nM.

How did the IC50 turn out when `O=C1CCC2(CN(C(=O)N3CC4(CN(Cc5snnc5C5CC5)C4)C3)C2)N1` [Example 345, 2-[6-[(4-cyclopropylthiadiazol-5-yl)methyl]-2,6-diazaspiro[3.3]heptane-2-carbonyl]-2,5-diazaspiro[3.4]octan-6-one] was run?
Its IC50 is 3330 nM.

How did the IC50 turn out when `O=C1NC2(CO1)CN(C(=O)N1CC3(CC[C@@H](Cc4cnc(C(F)(F)F)cn4)C3)C1)C2` [Example 113, 2-[(6R)-6-[[5-(trifluoromethyl)pyrazin-2-yl]methyl]-2-azaspiro[3.4]octane-2-carbonyl]-7-oxa-2,5-diazaspiro[3.4]octan-6-one] was run?
The IC50 was 0.62 nM.

With `CS(=O)(=O)c1cc(C(F)(F)F)ccc1C1CC2(C1)CN(C(=O)N1CC3(COC(=O)N3)C1)C2` [Example 117] as the compound, how does the IC50 read?
The IC50 was 1.96 nM.

Which IC50 does the source give for `O=C1COCC2(CN(C(=O)N3CC4(CC(Cc5cncc(Cl)c5)C4)C3)C2)N1` [Example 172, 2-[6-[(5-chloro-3-pyridyl)methyl]-2-azaspiro[3.3]heptane-2-carbonyl]-8-oxa-2,5-diazaspiro[3.5]nonan-6-one] here?
Its IC50 is 38.2 nM.

Which IC50 does the source give for `O=C1CCC2(CN(C(=O)N3CC4(CC(Cn5cnc(C6(C(F)(F)F)CC6)n5)C4)C3)C2)N1` [Example 330, 2-[6-[[3-[1-(trifluoromethyl)cyclopro-pyl]-1,2,4-triazol-1-yl]methyl]-2-azaspiro[3.3]heptane-2-carbonyl]-2,5-diazaspiro[3.4]octan-6-one] here?
The IC50 was 24.6 nM.

`O=C1CCC2(CN(C(=O)N3CC4(CC(Cc5nsc(C(F)(F)F)n5)C4)C3)C2)N1` [Example 349, 2-[6-[[5-(trifluoromethyl)-1,2,4-thiadiazol-3-yl]methyl]-2-azaspiro[3.3]heptane-2-carbonyl]-2,5-diazaspiro[3.4]octan-6-one] was tested. Which IC50 did it give?
Its IC50 is 23 nM.

How did the IC50 turn out when `N#Cc1ncc(CC2CC3(C2)CN(C(=O)N2CC4(COC(=O)N4)C2)C3)cc1C(F)(F)F` [Example 261, 5-[[2-(6-oxo-7-oxa-2,5-diazaspiro[3.4]octane-2-carbonyl)-2-azaspiro[3.3]heptan-6-yl]methyl]-3-(trifluoromethyl)pyridine-2-carbonitrile] was run?
The IC50 was 0.43 nM.

For `O=C1CCCC2(CN(C(=O)N3CC4(CC(Cn5cc(C(F)(F)F)cn5)C4)C3)C2)N1` [Example 274, 2-[6-[[4-(trifluoromethyl)pyrazol-1-yl]methyl]-2-azaspiro[3.3]heptane-2-carbonyl]-2,5-diazaspiro[3.5]nonan-6-one], which IC50 is on record?
The IC50 was 540 nM.

Which IC50 does the source give for `CS(=O)(=O)c1ccc(CC2CCC3(C2)CN(C(=O)N2CC4(COC(=O)N4)C2)C3)cc1` (stereo not shown) [Example 77, 2-[6-(4-mesylbenzyl)-2-azaspiro[3.4]octane-2-carbonyl]-7-oxa-2,5-diazaspiro[3.4]octan-6-one] here?
Its IC50 is 0.91 nM.

Which IC50 does the source give for `O=C1COCC2(CN(C(=O)N3CC4(CCN(S(=O)(=O)c5ccc(C(F)(F)F)cc5F)CC4)C3)C2)N1` [Example 141, 2-[7-[2-fluoro-4-(trifluoromethyl)phenyl]sulfonyl-2,7-diazaspiro[3.5]nonane-2-carbonyl]-8-oxa-2,5-diazaspiro[3.5]nonan-6-one] here?
The IC50 was 217 nM.

How did the IC50 turn out when `Cn1cc(OC2CC3(C2)CN(C(=O)N2CC4(CCC(=O)N4)C2)C3)c(C(F)(F)F)n1` [Example 310, 2-[6-[1-methyl-3-(trifluoromethyl)pyrazol-4-yl]oxy-2-azaspiro[3.3]heptane-2-carbonyl]-2,5-diazaspiro[3.4]octan-6-one] was run?
Its IC50 is 76.9 nM.

How did the IC50 turn out when `O=C1NC2(CO1)CN(C(=O)N1CC3(CCN(Cc4ccc(C(F)(F)F)nc4)CC3)C1)C2` [Example 151, 2-[7-[[6-(trifluoromethyl)-3-pyridyl]methyl]-2,7-diazaspiro[3.5]nonane-2-carbonyl]-7-oxa-2,5-diazaspiro[3.4]octan-6-one] was run?
The IC50 was 196 nM.

How did the IC50 turn out when `Cn1ncc(C(F)(F)F)c1CC1CC2(C1)CN(C(=O)N1CC3(CCC(=O)N3)C1)C2` [Example 167, 2-[6-[[2-methyl-4-(trifluoromethyl)pyrazol-3-yl]methyl]-2-azaspiro[3.3]heptane-2-carbonyl]-2,5-diazaspiro[3.4]octan-6-one] was run?
Its IC50 is 1.72 nM.

How did the IC50 turn out when `O=C1CCC2(CN(C(=O)N3CC4(CC(Cc5cnc(C(F)(F)F)cn5)C4)C3)C2)N1` [Example 4, 2-[6-[[5-(trifluoromethyl)pyrazin-2-yl]methyl]-2-azaspiro[3.3]heptane-2-carbonyl]-2,5-diazaspiro[3.4]octan-6-one] was run?
Its IC50 is 11.2 nM.

How did the IC50 turn out when `O=C1CCC2(CN(C(=O)N3CCC4(CC3)CN(Cc3ccc(C(F)(F)F)cc3F)C4)C2)N1` [Example 90, 2-[2-[2-fluoro-4-(trifluoromethyl)benzyl]-2,7-diazaspiro[3.5]nonane-7-carbonyl]-2,5-diazaspiro[3.4]octan-6-one] was run?
Its IC50 is 19.1 nM.

How did the IC50 turn out when `Cn1ncc(CC2CC3(C2)CN(C(=O)N2CC4(CCC(=O)N4)C2)C3)c1C(F)(F)F` [Example 165] was run?
The IC50 was 0.52 nM.

Source: US20240383904A1, “HETEROCYCLIC COMPOUNDS” (Hoffmann-La Roche Inc., priority 2021, published 2024)
